The term Ki denotes the equilibrium dissociation constant of an inhibitor or competing ligand from its target. A high value points to lower affinity.

Assay [1] addresses Histamine H3 receptor (Rattus norvegicus, UniProt Q9QYN8). The assay is described as follows: In vitro binding affinity was measured against Histamine H3 receptor on rat cerebral cortex. It is filed as tissue-based.
The target of assay [2] is Histamine H3 receptor (Cavia porcellus) (UniProt Q9JI35). The following applies: Jejunum.
Chain of Histamine H3 receptor (Cavia porcellus) (Q9JI35 whole entry): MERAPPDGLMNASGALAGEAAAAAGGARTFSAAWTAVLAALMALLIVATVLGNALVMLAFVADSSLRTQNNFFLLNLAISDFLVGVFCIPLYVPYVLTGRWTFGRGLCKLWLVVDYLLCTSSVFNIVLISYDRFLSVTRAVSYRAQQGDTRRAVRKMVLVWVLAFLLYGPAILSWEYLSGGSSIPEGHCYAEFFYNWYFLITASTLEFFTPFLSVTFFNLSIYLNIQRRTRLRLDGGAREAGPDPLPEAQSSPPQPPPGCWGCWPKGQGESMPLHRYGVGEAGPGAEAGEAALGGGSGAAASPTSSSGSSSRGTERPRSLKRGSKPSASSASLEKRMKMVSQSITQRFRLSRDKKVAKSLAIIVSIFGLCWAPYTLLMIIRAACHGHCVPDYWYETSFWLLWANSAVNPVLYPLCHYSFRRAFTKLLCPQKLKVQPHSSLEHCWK
For assay [3], the target named is Histamine H3 receptor (Rattus norvegicus) (UniProt Q9QYN8). To be noted: Cerebral cortex.
Chain of Histamine H3 receptor (Rattus norvegicus) (Q9QYN8 whole entry): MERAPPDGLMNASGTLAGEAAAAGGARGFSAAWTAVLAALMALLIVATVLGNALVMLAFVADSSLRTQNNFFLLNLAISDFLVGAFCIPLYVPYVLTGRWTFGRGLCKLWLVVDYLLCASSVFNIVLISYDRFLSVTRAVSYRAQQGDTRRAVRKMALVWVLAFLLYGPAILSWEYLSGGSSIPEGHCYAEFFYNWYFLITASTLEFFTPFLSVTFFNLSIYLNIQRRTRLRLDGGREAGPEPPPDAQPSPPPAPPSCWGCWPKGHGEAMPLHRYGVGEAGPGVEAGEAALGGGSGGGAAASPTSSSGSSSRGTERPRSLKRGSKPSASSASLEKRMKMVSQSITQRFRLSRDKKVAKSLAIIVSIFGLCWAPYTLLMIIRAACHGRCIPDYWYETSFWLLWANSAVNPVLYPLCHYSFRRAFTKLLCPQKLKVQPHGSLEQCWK
In assay [4] the target is Histamine H2 receptor (Cavia porcellus) (UniProt P47747). To be noted: Cardiac atrium.
Chain of Histamine H2 receptor (Cavia porcellus) (P47747 whole entry): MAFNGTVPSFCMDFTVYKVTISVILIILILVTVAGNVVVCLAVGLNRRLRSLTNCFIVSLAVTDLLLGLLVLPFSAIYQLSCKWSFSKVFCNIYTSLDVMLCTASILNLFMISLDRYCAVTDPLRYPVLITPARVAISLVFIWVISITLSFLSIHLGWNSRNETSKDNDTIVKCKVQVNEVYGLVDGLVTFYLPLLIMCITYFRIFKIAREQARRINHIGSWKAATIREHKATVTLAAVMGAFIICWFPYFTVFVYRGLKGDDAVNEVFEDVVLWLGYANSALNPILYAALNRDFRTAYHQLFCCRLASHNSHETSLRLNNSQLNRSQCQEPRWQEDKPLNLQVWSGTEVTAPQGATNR
In assay [5] the target is Histamine H1 receptor (Cavia porcellus) (UniProt P31389). The following applies: Jejunum.
Chain of Histamine H1 receptor (Cavia porcellus) (P31389 whole entry): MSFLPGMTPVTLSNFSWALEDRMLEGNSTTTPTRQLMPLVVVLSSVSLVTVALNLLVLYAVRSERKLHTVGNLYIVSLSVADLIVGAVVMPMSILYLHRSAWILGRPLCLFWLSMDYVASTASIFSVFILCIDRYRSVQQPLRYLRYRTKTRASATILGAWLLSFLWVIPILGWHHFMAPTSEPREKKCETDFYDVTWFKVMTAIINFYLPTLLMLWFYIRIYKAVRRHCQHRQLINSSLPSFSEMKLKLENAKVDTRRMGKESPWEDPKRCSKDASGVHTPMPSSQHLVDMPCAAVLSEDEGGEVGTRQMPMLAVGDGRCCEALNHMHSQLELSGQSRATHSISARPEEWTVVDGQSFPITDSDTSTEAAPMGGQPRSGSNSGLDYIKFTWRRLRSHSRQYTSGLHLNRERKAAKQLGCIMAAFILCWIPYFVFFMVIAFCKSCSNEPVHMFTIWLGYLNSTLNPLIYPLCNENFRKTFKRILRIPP

Chain of Histamine H3 receptor (Q9QYN8 whole entry): as the sequence (Q9QYN8 whole entry) above

Consider `N[C@@H]1C[C@H]1c1cnc[nH]1` [VUF-5296], for which the Ki in assay [1] is 25.1 nM.

In turn, `N[C@H]1C[C@@H]1c1c[nH]cn1` [VUF-5297] had a Ki in assay [1] of 1.74 nM. Further, the pD2 in assay [2] turned out to be 6.64; in assay [3], 7.08; in assay [4], 4.8; in assay [5], 5.

Regarding `N[C@@H]1C[C@H]1c1c[nH]cn1`, the pD2 in assay [2] worked out at 6.15; in assay [3] it was 5.75; in assay [4], 4.9; in assay [5], 4.5.

As to `NCCc1c[nH]cn1`, the pD2 is 7.4 in assay [2], 7.4 in assay [3], 6.1 in assay [4] and 6.6 in assay [5].

For the origin of these results see ChEMBL document CHEMBL1132619 (J Med Chem, 1999).
